# Experimental data as given in US8680290B2, “Isoxazoline derivatives and their use as herbicides” (Syngenta Limited, priority 2004, dated 2014).
# Tests used:
# Assay type in all cases: in vivo
# [1] = system: Monocotyledonous and dicotyledonous test plants; assay: Example B2 herbicidal action, application pre-emergence, 96-cell seed trays (Table B2b); settings: 1000 g/ha
# Procedure: Monocotyledonous and dicotyledonous test plants were sown in sterilised standard soil in seed trays each having 96 cells. After one day (pre-emergence) or after 8 to 9 days cultivation (post-emergence) under controlled conditions in a climatic chamber (cultivation at 17/23° C.; 13 hours light; 50-60% humidity; after application at 19/24° C.), the plants were treated with an aqueous spray solution of 1000 mg/l of the active ingredient used (rate of application: […]; incl. 10% DMSO as solvent). The plants were grown on in the climatic chamber until the test was evaluated (10 total damage to plant, 0=no damage to plant) after 9 or 13 days.
# [2] = system: Monocotyledonous and dicotyledonous test plants; assay: Example B1 herbicidal action, application pre-emergence (Table B1b); settings: 250 g/ha, evaluated after 4 weeks
# Procedure, shortened: (§1)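 Compounds sprayed as aqueous solution from acetone/Emulsogen EL/NMP/dipropylene glycol monomethyl ether/X-77 formulation onto soil right after sowing (pre-emergence) or onto 8–9-day plants (post-emergence); greenhouse-grown. Damage scored 0 (none) to 10 (total) after 4 weeks pre- or 3 weeks post-emergence.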
# [3] = system: Monocotyledonous and dicotyledonous test plants; assay: Example B1 herbicidal action, application post-emergence (Table B1a); settings: 250 g/ha, evaluated after 3 weeks, scale 0-10
# Procedure, shortened: as §1
smiles,measurement,setting,value
CC1(C)CC(S(=O)(=O)C(C)(Cl)c2c(F)cccc2F)=NO1 (stereo not drawn) [1.15],"herbicidal action (damage rating 0-10), Agrostis",[1],2
same,"herbicidal action (damage rating 0-10), Digitaria",[1],9
same,"herbicidal action (damage rating 0-10), Poa",[1],10
same,"herbicidal action (damage rating 0-10), Setaria",[1],9
same,"herbicidal action (damage rating 0-10), Amaranthus",[2],10
same,"herbicidal action (damage rating 0-10), Digitaria",[2],9
same,"herbicidal action (damage rating 0-10), Panicum",[2],10
same,"herbicidal action (damage rating 0-10), Setaria",[2],8
same,"herbicidal action (damage rating 0-10), Sida",[2],0
Cc1cccc(C(CC=C(F)F)S(=O)(=O)C2=NOC(C)(C)C2)c1 (stereo not drawn) [1.29],"herbicidal action (damage rating 0-10), Agrostis",[1],10
same,"herbicidal action (damage rating 0-10), Digitaria",[1],9
same,"herbicidal action (damage rating 0-10), Poa",[1],8
same,"herbicidal action (damage rating 0-10), Setaria",[1],4
same,"herbicidal action (damage rating 0-10), Amaranthus",[2],2
same,"herbicidal action (damage rating 0-10), Digitaria",[2],3
same,"herbicidal action (damage rating 0-10), Panicum",[2],7
same,"herbicidal action (damage rating 0-10), Setaria",[2],7
same,"herbicidal action (damage rating 0-10), Sida",[2],0
CC1(C)CC(S(=O)(=O)C(C)(Br)c2c(F)cccc2F)=NO1 (stereo not drawn) [1.37],"herbicidal action (damage rating 0-10), Agrostis",[1],10
same,"herbicidal action (damage rating 0-10), Digitaria",[1],9
same,"herbicidal action (damage rating 0-10), Poa",[1],10
same,"herbicidal action (damage rating 0-10), Setaria",[1],9
same,"herbicidal action (damage rating 0-10), Amaranthus",[2],0
same,"herbicidal action (damage rating 0-10), Digitaria",[2],9
same,"herbicidal action (damage rating 0-10), Panicum",[2],9
same,"herbicidal action (damage rating 0-10), Setaria",[2],9
same,"herbicidal action (damage rating 0-10), Sida",[2],5
CC1(C)CC(S(=O)(=O)C2(c3c(F)cccc3F)CC2[N+](=O)[O-])=NO1 (stereo not drawn) [1.48],"herbicidal action (damage rating 0-10), Agrostis",[1],10
same,"herbicidal action (damage rating 0-10), Digitaria",[1],9
same,"herbicidal action (damage rating 0-10), Poa",[1],10
same,"herbicidal action (damage rating 0-10), Setaria",[1],8
COCC(=O)OC(COC)=C(c1c(F)cccc1F)S(=O)(=O)C1=NOC(C)(C)C1 [1.100],"herbicidal action (damage rating 0-10), Agrostis",[1],5
same,"herbicidal action (damage rating 0-10), Digitaria",[1],7
same,"herbicidal action (damage rating 0-10), Poa",[1],9
same,"herbicidal action (damage rating 0-10), Setaria",[1],3
Cn1nc(C(F)(F)F)c(C(F)S(=O)(=O)C2=NOC(C)(C)C2)c1Cl (stereo not drawn) [2.02],"herbicidal action (damage rating 0-10), Agrostis",[1],10
same,"herbicidal action (damage rating 0-10), Digitaria",[1],9
same,"herbicidal action (damage rating 0-10), Poa",[1],10
same,"herbicidal action (damage rating 0-10), Setaria",[1],10
Cn1nc(C(F)(F)F)c(C(Cl)(Cl)S(=O)(=O)C2=NOC(C)(C)C2)c1OCC(F)(F)F [2.13],"herbicidal damage rating, Abutilon",[3],6
same,"herbicidal damage rating, Amaranthus",[3],7
same,"herbicidal damage rating, Digitaria",[3],5
same,"herbicidal damage rating, Panicum",[3],7
same,"herbicidal damage rating, Setaria",[3],8
same,"herbicidal damage rating, Sida",[3],7
same,"herbicidal action (damage rating 0-10), Amaranthus",[2],10
same,"herbicidal action (damage rating 0-10), Digitaria",[2],10
same,"herbicidal action (damage rating 0-10), Panicum",[2],10
same,"herbicidal action (damage rating 0-10), Setaria",[2],10
same,"herbicidal action (damage rating 0-10), Sida",[2],7
Cn1nc(C(F)(F)F)c(C(F)(Cl)S(=O)(=O)C2=NOC(C)(C)C2)c1OC(F)F (stereo not drawn) [2.14],"herbicidal damage rating, Abutilon",[3],7
same,"herbicidal damage rating, Amaranthus",[3],8
same,"herbicidal damage rating, Digitaria",[3],7
same,"herbicidal damage rating, Panicum",[3],7
same,"herbicidal damage rating, Setaria",[3],4
same,"herbicidal damage rating, Sida",[3],7
same,"herbicidal action (damage rating 0-10), Amaranthus",[2],10
same,"herbicidal action (damage rating 0-10), Digitaria",[2],10
same,"herbicidal action (damage rating 0-10), Panicum",[2],10
same,"herbicidal action (damage rating 0-10), Setaria",[2],10
same,"herbicidal action (damage rating 0-10), Sida",[2],9
Cn1nc(C(F)(F)F)c(C(Cl)(Cl)S(=O)(=O)C2=NOC(C)(C)C2)c1OC(F)F [2.15],"herbicidal damage rating, Abutilon",[3],4
same,"herbicidal damage rating, Amaranthus",[3],0
same,"herbicidal damage rating, Digitaria",[3],6
same,"herbicidal damage rating, Panicum",[3],2
same,"herbicidal damage rating, Setaria",[3],4
same,"herbicidal damage rating, Sida",[3],4
same,"herbicidal action (damage rating 0-10), Amaranthus",[2],10
same,"herbicidal action (damage rating 0-10), Digitaria",[2],10
same,"herbicidal action (damage rating 0-10), Panicum",[2],10
same,"herbicidal action (damage rating 0-10), Setaria",[2],10
same,"herbicidal action (damage rating 0-10), Sida",[2],8
Cn1nc(C(F)(F)F)c(C(Cl)S(=O)(=O)C2=NOC(C)(C)C2)c1OC(F)F (stereo not drawn) [2.16],"herbicidal damage rating, Abutilon",[3],7
same,"herbicidal damage rating, Amaranthus",[3],8
same,"herbicidal damage rating, Digitaria",[3],4
same,"herbicidal damage rating, Panicum",[3],0
same,"herbicidal damage rating, Setaria",[3],8
same,"herbicidal damage rating, Sida",[3],7
same,"herbicidal action (damage rating 0-10), Amaranthus",[2],10
same,"herbicidal action (damage rating 0-10), Digitaria",[2],10
same,"herbicidal action (damage rating 0-10), Panicum",[2],10
same,"herbicidal action (damage rating 0-10), Setaria",[2],10
same,"herbicidal action (damage rating 0-10), Sida",[2],7
CC1(C)CC(S(=O)(=O)C(Cl)c2cccnc2Cl)=NO1 (stereo not drawn) [8.01],"herbicidal damage rating, Abutilon",[3],3
same,"herbicidal damage rating, Amaranthus",[3],0
same,"herbicidal damage rating, Digitaria",[3],0
same,"herbicidal damage rating, Panicum",[3],3
same,"herbicidal damage rating, Setaria",[3],0
same,"herbicidal damage rating, Sida",[3],3
same,"herbicidal action (damage rating 0-10), Amaranthus",[2],5
same,"herbicidal action (damage rating 0-10), Digitaria",[2],8
same,"herbicidal action (damage rating 0-10), Panicum",[2],8
same,"herbicidal action (damage rating 0-10), Setaria",[2],5
same,"herbicidal action (damage rating 0-10), Sida",[2],0
CC1(C)CC(S(=O)(=O)C(F)c2cccnc2Cl)=NO1 (stereo not drawn) [8.02],"herbicidal damage rating, Abutilon",[3],2
same,"herbicidal damage rating, Amaranthus",[3],0
same,"herbicidal damage rating, Digitaria",[3],6
same,"herbicidal damage rating, Panicum",[3],3
same,"herbicidal damage rating, Setaria",[3],3
same,"herbicidal damage rating, Sida",[3],3
same,"herbicidal action (damage rating 0-10), Amaranthus",[2],7
same,"herbicidal action (damage rating 0-10), Digitaria",[2],9
same,"herbicidal action (damage rating 0-10), Panicum",[2],10
same,"herbicidal action (damage rating 0-10), Setaria",[2],8
same,"herbicidal action (damage rating 0-10), Sida",[2],0
CC1(C)CC(S(=O)(=O)C(F)(Cl)c2cccnc2Cl)=NO1 (stereo not drawn) [8.03],"herbicidal damage rating, Abutilon",[3],4
same,"herbicidal damage rating, Amaranthus",[3],0
same,"herbicidal damage rating, Digitaria",[3],7
same,"herbicidal damage rating, Panicum",[3],6
same,"herbicidal damage rating, Setaria",[3],4
same,"herbicidal damage rating, Sida",[3],0
same,"herbicidal action (damage rating 0-10), Amaranthus",[2],8
same,"herbicidal action (damage rating 0-10), Digitaria",[2],10
same,"herbicidal action (damage rating 0-10), Panicum",[2],10
same,"herbicidal action (damage rating 0-10), Setaria",[2],8
same,"herbicidal action (damage rating 0-10), Sida",[2],6
CC1(C)CC(S(=O)(=O)C(F)(F)c2cccnc2Cl)=NO1 [8.04],"herbicidal damage rating, Abutilon",[3],3
same,"herbicidal damage rating, Panicum",[3],3
same,"herbicidal damage rating, Setaria",[3],2
same,"herbicidal damage rating, Sida",[3],0
same,"herbicidal action (damage rating 0-10), Amaranthus",[2],10
same,"herbicidal action (damage rating 0-10), Digitaria",[2],10
same,"herbicidal action (damage rating 0-10), Panicum",[2],10
same,"herbicidal action (damage rating 0-10), Setaria",[2],10
same,"herbicidal action (damage rating 0-10), Sida",[2],3
"CCOC(=O)CCC(c1c(F)cccc1F)S(=O)(=O)C1=NOC(C)(C)C1 (stereo not drawn) [Compound No. 1.08, 4-(2,6-difluoro-phenyl)-4-(5,5-dimethyl-4,5-dihydroisoxazole-3-sulfonyl)-butyric acid ethyl ester]","herbicidal action (damage rating 0-10), Agrostis",[1],7
same,"herbicidal action (damage rating 0-10), Digitaria",[1],8
same,"herbicidal action (damage rating 0-10), Poa",[1],9
same,"herbicidal action (damage rating 0-10), Setaria",[1],3
"CC1(C)CC(S(=O)(=O)C2(c3c(F)cccc3F)CC2(Cl)Cl)=NO1 (stereo not drawn) [Compound No. 1.45, 3-[2,2-dichloro-1-(2,6-difluoro-phenyl)-cyclopropanesulfonyl]-5,5-dimethyl-4,5-dihydroisoxazole]","herbicidal action (damage rating 0-10), Agrostis",[1],7
same,"herbicidal action (damage rating 0-10), Digitaria",[1],8
same,"herbicidal action (damage rating 0-10), Poa",[1],10
same,"herbicidal action (damage rating 0-10), Setaria",[1],6
COCC(=O)C(c1c(F)cccc1F)S(=O)(=O)C1=NOC(C)(C)C1 (stereo not drawn) [Compound No. 1.59],"herbicidal action (damage rating 0-10), Agrostis",[1],9
same,"herbicidal action (damage rating 0-10), Digitaria",[1],8
same,"herbicidal action (damage rating 0-10), Poa",[1],10
same,"herbicidal action (damage rating 0-10), Setaria",[1],9
"CC1(C)CC(S(=O)(=O)C(F)(Br)c2c(F)cccc2F)=NO1 (stereo not drawn) [Compound No. 1.63, 3-[bromo-(2,6-difluorophenyl)-fluoro-methanesulfonyl]-5,5-dimethyl-4,5-dihydroisoxazole]","herbicidal damage rating, Abutilon",[3],4
same,"herbicidal damage rating, Amaranthus",[3],3
same,"herbicidal damage rating, Digitaria",[3],7
same,"herbicidal damage rating, Panicum",[3],7
same,"herbicidal damage rating, Setaria",[3],7
same,"herbicidal damage rating, Sida",[3],4
same,"herbicidal action (damage rating 0-10), Amaranthus",[2],10
same,"herbicidal action (damage rating 0-10), Digitaria",[2],10
same,"herbicidal action (damage rating 0-10), Panicum",[2],10
same,"herbicidal action (damage rating 0-10), Setaria",[2],10
same,"herbicidal action (damage rating 0-10), Sida",[2],8
"CC1(C)CC(S(=O)(=O)C(c2c(F)cccc2F)C(F)(F)F)=NO1 (stereo not drawn) [Compound No. 1.113, 3-[1-(2,6-difluoro-phenyl)-2,2,2-trifluoro-ethanesulfonyl]-5,5-dimethyl-4,5-dihydroisoxazole]","herbicidal damage rating, Abutilon",[3],2
same,"herbicidal damage rating, Amaranthus",[3],0
same,"herbicidal damage rating, Digitaria",[3],8
same,"herbicidal damage rating, Panicum",[3],3
same,"herbicidal damage rating, Setaria",[3],7
same,"herbicidal damage rating, Sida",[3],4
same,"herbicidal action (damage rating 0-10), Amaranthus",[2],8
same,"herbicidal action (damage rating 0-10), Digitaria",[2],9
same,"herbicidal action (damage rating 0-10), Panicum",[2],10
same,"herbicidal action (damage rating 0-10), Setaria",[2],10
same,"herbicidal action (damage rating 0-10), Sida",[2],0
